Test [1] deals with ULK kinase. Description: pATG13 levels of mutant KRas A549 cells after treatment with ULK inhibitors in combination with trametinib (ELISA). To be noted: A549 (KRAS mutant) lung cancer cells, 250 nM trametinib, overnight, pS318-ATG13. The format is cell-based, human. The method, then: Cellular Inhibition of ULK Kinase Substrate ATG13 Protein pATG13 Levels of Mutant KRas A549 Cells after Treatment with ULK Inhibitors in Combination with Trametinib
(§1) A549 (KRAS mutant) human lung cancer cells (6,000 cells/well) were added to a 384-well tissue-culture treated plate in 50 μL of pre-warmed DMEM medium supplemented with 10% characterized fetal bovine serum (Invitrogen, Carlsbad, Calif.), 100 units/mL penicillin G, and 100 μg/mL streptomycin and allowed to grow overnight at 37° C., 5% CO2, and 95% humidity. The following day, 10 μL of media containing trametinib or DMSO as a control was added to wells. […] A dose response of a test compound (0.6 μL per well) was added. DMSO (0.6 μL) was added to control wells. The plate was briefly shaken to mix wells and then incubated at 37° C. overnight. The next day, the media was aspirated and cells were washed with Dulbecco's Phosphate Buffered Saline (Gibco). Cells were lysed using MPER lysis buffer (Pierce, Rockford, Ill.) containing Halt Phosphatase and Protease Inhibitors (Pierce, Rockford, Ill.) and Phosphatase inhibitor cocktail 2 (Sigma, St. Louis, Mo.) at 4° C. for 10 minutes with shaking.
(§2) Plate wells were washed with ELISA wash buffer. Cell lysate was added to wells and incubated at room temperature for 2 hours. Plate wells were washed with ELISA wash buffer. […] Plate wells were washed with ELISA wash buffer. […] Plate wells were washed with ELISA wash buffer. […] The reaction was stopped with 2N Sulfuric Acid. The plate was analyzed at on a plate reader measuring absorbance at 450 nm and 540 nm (background). Signal was calculated by first subtracting the background absorbance at 540 nm from the absorbance at 450 nm for each well. Next, the background corrected absorbance at 450 nm from blank wells was subtracted from test wells. Data was compared to control wells to determine % ATG13 phosphorylation. GraphPad Prism was used to calculate IC50 values.

The subject of test [2] is ULK kinase. The experiment in a line: pATG13 levels of mutant KRas MiaPaCa-2 cells after treatment with ULK inhibitors in combination with trametinib (ELISA). The class given is cell-based, human. To be noted: MiaPaCa-2 pancreatic cancer cells, 250 nM trametinib, overnight, pS318-ATG13. The method, then: as §1, with “MiaPaCa-2” for “A549 (KRAS mutant)”, “pancreatic” for “lung”, “(10000” for “(6,000”, “G, 100 µg/mL streptomycin,” for “G,”, “2.5% Horse Serum” for “100 μg/mL streptomycin”
as §2

Test [3] concerns the target T1, ULK1 kinase (Homo sapiens, UniProt O75385, E37A/K38A).
T1 construct: purchased Beryllium
T1 sequence (O75385 1-283 E37A/K38A): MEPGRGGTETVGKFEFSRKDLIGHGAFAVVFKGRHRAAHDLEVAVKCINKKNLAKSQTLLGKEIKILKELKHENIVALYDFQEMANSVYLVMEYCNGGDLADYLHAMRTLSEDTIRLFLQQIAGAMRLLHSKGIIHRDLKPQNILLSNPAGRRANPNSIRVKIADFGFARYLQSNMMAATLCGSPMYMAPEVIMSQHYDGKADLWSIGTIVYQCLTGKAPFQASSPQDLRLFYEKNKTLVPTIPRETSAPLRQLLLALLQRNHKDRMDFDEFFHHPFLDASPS
Description: Biochemical assay for ULK1.3 (coupled pyruvate kinase/lactate dehydrogenase assay, peptide substrate). The settings on record: 0.1 nM ULK1 (residues 1-283), 1 mM ATP. The method, then: Biochemical Assay for ULK1.3 (SEQ. ID NO: 2)
Inhibition of ULK1 was measured by adding serial diluted test compound (final assay concentration of 1% DMSO). A decrease in absorption at 340 nm was monitored continuously for 6 hours at 30° C. on a multi-mode microplate reader (BioTek). The reaction rate was calculated using the 2-3 h time frame. The reaction rate at each concentration of compound was converted to percent inhibition using controls (i.e. reaction with no test compound and reaction with a known inhibitor) and IC50 values were calculated using software routines in Prism (GraphPad software).

Test [4] concerns the target T2, LRRK2 kinase (Homo sapiens, UniProt Q5S007).
T2 construct: purchased Thermo Fisher
Description: Biochemical assay for LRRK2 (coupled pyruvate kinase/lactate dehydrogenase assay). The settings on record: 26.4 nM LRRK2 (residues 970-2528), peptide substrate, 1 mM ATP. The protocol:
Example 138. Biochemical Assay for LRRK2 (SEQ. ID NO: 4)
Activity of LRRK2 kinase was determined spectroscopically using a coupled pyruvate kinase/lactate dehydrogenase assay that continuously monitors the ATP hydrolysis-dependent oxidation of NADH (e.g., Schindler et al. Science (2000) 289: 1938-1942). Assays were conducted in 384-well plates (100 μL final volume) using 26.4 nM LRRK2 (Thermo Fisher), 0.1 mM peptide substrate ([…] (SEQ ID NO: 6)), 1.5 units pyruvate kinase, 2.1 units lactate dehydrogenase, 1 mM phosphoenol pyruvate, 0.28 mM NADH and 1 mM ATP in assay buffer (100 mM Tris, pH 7.5, 15 mM MgCl2, 0.5 mM DTT, 0.004% (w/v) BSA, and 0.004% Triton X-100). Inhibition of LRRK2 was measured by adding serial diluted test compound (final assay concentration of 1% DMSO). A decrease in absorption at 340 nm was monitored continuously for 6 hours at 30° C. on a multi-mode microplate reader (BioTek). The reaction rate was calculated using the 2-3 h time frame. The reaction rate at each concentration of compound was converted to percent inhibition using controls (i.e. reaction with no test compound and reaction with a known inhibitor) and IC50 values were calculated using software routines in Prism (GraphPad software).

T2 sequence (Q5S007 with tags, fused parts or gaps): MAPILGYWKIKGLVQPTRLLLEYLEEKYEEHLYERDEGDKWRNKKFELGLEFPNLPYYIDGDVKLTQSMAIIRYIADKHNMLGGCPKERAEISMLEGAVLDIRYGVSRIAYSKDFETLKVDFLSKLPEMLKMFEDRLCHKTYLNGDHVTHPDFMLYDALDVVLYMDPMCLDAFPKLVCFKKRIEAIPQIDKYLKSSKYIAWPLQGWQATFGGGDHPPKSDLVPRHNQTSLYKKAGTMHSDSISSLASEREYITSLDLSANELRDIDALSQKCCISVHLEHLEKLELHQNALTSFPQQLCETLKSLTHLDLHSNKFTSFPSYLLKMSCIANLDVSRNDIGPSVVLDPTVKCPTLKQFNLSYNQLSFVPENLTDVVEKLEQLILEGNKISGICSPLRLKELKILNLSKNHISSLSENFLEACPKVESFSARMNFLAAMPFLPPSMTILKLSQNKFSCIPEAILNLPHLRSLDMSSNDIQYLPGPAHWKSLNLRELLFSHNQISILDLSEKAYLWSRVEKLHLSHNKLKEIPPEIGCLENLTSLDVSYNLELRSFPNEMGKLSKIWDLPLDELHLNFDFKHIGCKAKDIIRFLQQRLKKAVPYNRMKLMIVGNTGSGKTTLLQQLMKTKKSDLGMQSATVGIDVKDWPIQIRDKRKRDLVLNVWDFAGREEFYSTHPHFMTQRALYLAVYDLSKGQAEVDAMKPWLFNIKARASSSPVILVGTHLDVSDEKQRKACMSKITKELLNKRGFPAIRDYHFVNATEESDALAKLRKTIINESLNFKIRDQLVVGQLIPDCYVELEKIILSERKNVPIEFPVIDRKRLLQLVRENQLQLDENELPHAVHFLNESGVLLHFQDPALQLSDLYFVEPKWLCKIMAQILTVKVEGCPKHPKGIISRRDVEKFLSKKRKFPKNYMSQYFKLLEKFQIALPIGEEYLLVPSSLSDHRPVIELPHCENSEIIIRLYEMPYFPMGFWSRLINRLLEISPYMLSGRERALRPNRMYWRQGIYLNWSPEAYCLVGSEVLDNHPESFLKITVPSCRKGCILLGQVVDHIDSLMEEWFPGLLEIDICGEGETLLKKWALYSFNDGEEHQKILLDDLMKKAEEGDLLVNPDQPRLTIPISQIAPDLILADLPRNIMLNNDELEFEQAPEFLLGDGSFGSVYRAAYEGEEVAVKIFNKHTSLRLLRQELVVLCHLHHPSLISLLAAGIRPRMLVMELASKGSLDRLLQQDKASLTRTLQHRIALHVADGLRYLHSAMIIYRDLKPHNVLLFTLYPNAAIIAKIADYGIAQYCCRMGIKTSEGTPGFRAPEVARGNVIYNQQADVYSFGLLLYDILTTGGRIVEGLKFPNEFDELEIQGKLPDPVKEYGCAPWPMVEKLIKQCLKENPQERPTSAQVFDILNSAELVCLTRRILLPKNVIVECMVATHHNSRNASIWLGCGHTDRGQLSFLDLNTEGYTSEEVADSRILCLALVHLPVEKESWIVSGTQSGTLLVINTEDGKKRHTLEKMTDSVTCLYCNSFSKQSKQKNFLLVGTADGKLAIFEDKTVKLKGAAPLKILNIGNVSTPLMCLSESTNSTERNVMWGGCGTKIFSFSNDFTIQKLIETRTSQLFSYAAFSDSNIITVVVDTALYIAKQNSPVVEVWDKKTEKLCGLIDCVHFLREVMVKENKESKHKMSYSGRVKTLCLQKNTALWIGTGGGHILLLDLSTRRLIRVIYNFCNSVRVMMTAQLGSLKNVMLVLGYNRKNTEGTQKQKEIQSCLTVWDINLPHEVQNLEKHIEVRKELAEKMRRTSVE

In the case of `CC(C)c1cc(N2CCN(C)CC2)ccc1Nc1ncc(C(F)(F)F)c(NCCCN2CCCCC2=O)n1` [Example 33], the IC50 (in general, the concentration that inhibits the measured activity by half) in test [1] fell in the range of 100 to 300 nM; in test [2] it was 10 to 100 nM; in test [3], 1 to 25 nM; in test [4] it was 300 to 600 nM.
Consider `CCc1cc(N2CC[C@H](C#N)C2)ccc1Nc1ncc(C(F)(F)F)c(NCCCN2CCCCC2=O)n1` [Example 48], for which the IC50 in test [3] was 100 to 500 nM; in test [4] it was 100 to 300 nM.
For the compound `CN1CCN(c2ccc(Nc3ncc(C(F)(F)F)c(NCCCN4CCCCC4=O)n3)c(C3CC3)c2)CC1=O` [Example 49], the IC50 in test [3] was in the range of 100 to 500 nM; in test [4], 100 to 300 nM.
Regarding `CCc1cc(N2CCN(C)CC2=O)ccc1Nc1ncc(C(F)(F)F)c(NCCCN2CCCOC2=O)n1` [Example 56], the figures for the IC50 in test [3] and in test [4] were 25 to 100 nM and 100 to 300 nM, respectively.
With `CCc1cc(N2CCN(C)CC2)ccc1Nc1ncc(C2CC2)c(NCCCN2CCCOCC2=O)n1` [Example 61], the IC50 in test [3] is above 500 nM; in test [4], above 600 nM.
In the case of `O=C1COCCCN1CCCNc1nc(Nc2ccc(N3CCNCC3)cc2C2CC2)ncc1C(F)(F)F` [Example 62], the figures for the IC50 in test [1], in test [2] and in test [3] were 100 to 300 nM, 10 to 100 nM and 1 to 25 nM, respectively.
Turning to `CCc1cc(N2CCN(C)CC2)c(F)cc1Nc1ncc(C(F)(F)F)c(NCCCN2CCCOCC2=O)n1` [Example 64], the half-maximal inhibitory concentration (IC50) in test [3] fell in the range of 100 to 500 nM; in test [4], 1 to 100 nM.
Regarding `CCc1cc(N2CCN(C)CC2)ncc1Nc1ncc(C(F)(F)F)c(NCCCN2CCOCCC2=O)n1` [Example 67], the IC50 was 100 to 300 nM in test [1], 100 to 300 nM in test [2] and 1 to 25 nM in test [3].
In the case of `Cc1cc(N2C[C@H]3C[C@@H]2CO3)ccc1Nc1ncc(C(F)(F)F)c(NCCCN2CCOCCC2=O)n1` [Example 78], the IC50 in test [3] is 100 to 500 nM; in test [4], 100 to 300 nM.
Take `CCc1cc(N2CCN(C)CC2)ccc1Nc1ncc(Cl)c(NCCCN2CCOCCC2=O)n1` [Example 80]: the IC50 in test [1] was above 600 nM; in test [2] it was 100 to 300 nM; in test [3], 25 to 100 nM.
Turning to `CN1CCN(c2ccc(Nc3ncc(Br)c(NCCCN4CCOCCC4=O)n3)c(C3CC3)c2)CC1` [Example 81], the values for the IC50 in test [1], in test [2] and in test [3] were 100 to 300 nM, 10 to 100 nM and 1 to 25 nM, respectively.
In the same order, the values of `CN1CCN(c2ccc(Nc3ncc(Cl)c(NCCCN4CCOCCC4=O)n3)c(C3CC3)c2)CC1` [Example 82] are 100 to 300 nM, 100 to 300 nM and 25 to 100 nM.
For `CC(C)c1cc(N2CCN(C)CC2)ccc1Nc1ncc(Cl)c(NCCCN2CCOCCC2=O)n1` [Example 88], the IC50 in test [1] fell in the range of 300 to 600 nM; in test [2], 100 to 300 nM; in test [3] it was 25 to 100 nM.
Take `CCc1cc(N2CC[C@@H](C#N)C2)ccc1Nc1ncc(C(F)(F)F)c(NCCCN2CCCCC2=O)n1` [Example 93]: the IC50 in test [3] lay in the range of 100 to 500 nM; in test [4], 100 to 300 nM.
For `CCc1cc(N2CCN(C)CC2)ccc1Nc1ncc(Br)c(NCCCN2CCCOCC2=O)n1` [Example 100], the IC50 in test [1] lay within 100 to 300 nM; in test [2] it was 100 to 300 nM; in test [3], 25 to 100 nM.
Regarding `CN1CCN(c2ccc(Nc3cc(NCCCN4CCOCCC4=O)c(C(F)(F)F)cn3)c(C3CC3)c2)CC1` [Example 101], the IC50 in test [1] is 300 to 600 nM; in test [2], above 600 nM; in test [3], 1 to 25 nM.
Turning to `CN1CCN(c2ccc(Nc3cc(NCCCN4CCCOC4=O)c(C(F)(F)F)cn3)cc2)CC1` [Example 102], the IC50 was in the range of 100 to 300 nM in test [1], 100 to 300 nM in test [2] and 1 to 25 nM in test [3].
For the compound `CN1CCN(c2ccc(Nc3cc(NCCCN4CCCCC4=O)c(C(F)(F)F)cn3)cc2)CC1` [Example 103], the IC50 is 10 to 100 nM in test [1], 10 to 100 nM in test [2] and 1 to 25 nM in test [3].
Turning to `CN1CCN(c2ccc(Nc3cc(NCCCN4CCOCCC4=O)c(C(F)(F)F)cn3)cc2)CC1` [Example 110], the IC50 in test [1] was in the range of 100 to 300 nM; in test [2], 10 to 100 nM; in test [3], 1 to 25 nM.
As for `CN1CCN(c2ccc(Nc3ncc(C(F)(F)F)c(NCCCN4CCCOC4=O)n3)c(C3CCCC3)c2)CC1` [Example 111], the values for the IC50 in test [3] and in test [4] were 1 to 25 nM and 100 to 300 nM, respectively.
`CN1CCN(c2ccc(Nc3ncc(C(F)(F)F)c(NCCCN4CCCCC4=O)n3)c(C3CCCC3)c2)CC1` [Example 113]: the IC50 in test [3] lay in the range of 1 to 25 nM; in test [4] it was 100 to 300 nM.
For the compound `CCc1cc(N2CCN(C)C(=O)C2)ccc1Nc1ncc(C(F)(F)F)c(NCCCN2CCCOC2=O)n1` [Example 114], the IC50 was 25 to 100 nM in test [3] and 1 to 100 nM in test [4].
In the same order, the values of `CCc1cc(N2CCN(C)C(=O)C2)ccc1Nc1ncc(C(F)(F)F)c(NCCCN2CCOCCC2=O)n1` [Example 115] are 100 to 500 nM and 100 to 300 nM.
As for `CN(C)C1CN(c2ccc(Nc3ncc(Br)c(NCCCN4CCCCC4=O)n3)c(C3CC3)c2)C1` [Example 118], the IC50 in test [3] was 25 to 100 nM; in test [4], 1 to 100 nM.
On to `CCc1cc(N2C[C@H]3C[C@@H]2CN3C)ccc1Nc1ncc(C(F)(F)F)c(NCCCN2CCCOC2=O)n1` [Example 123], for which the values for the IC50 in test [1], in test [3] and in test [4] were 10 to 100 nM, 1 to 25 nM and 100 to 300 nM, respectively.
Regarding `CN1C2CCC1CN(c1ccc(Nc3ncc(C(F)(F)F)c(NCCCN4CCCCC4=O)n3)c(C3CC3)c1)C2` [Example 130], the IC50 in test [1] is 300 to 600 nM; in test [2], 300 to 600 nM; in test [3], 25 to 100 nM.
`CN(C)CC1CN(c2ccc(Nc3ncc(C(F)(F)F)c(NCCCN4CCOCCC4=O)n3)c(C3CC3)c2)C1` [Example 137]: the IC50 is 100 to 300 nM in test [1], 10 to 100 nM in test [2] and 1 to 25 nM in test [3].
Turning to `CCc1cc(N2CC3CCC(C2)N3)ccc1Nc1ncc(C(F)(F)F)c(NCCCN2CCOCCC2=O)n1` [Example 150], the IC50 in test [1] was in the range of 100 to 300 nM; in test [2] it was 10 to 100 nM; in test [3] it was 1 to 25 nM.

For the origin of these results see patent US11530206B2, “Phenylaminopyrimidine amide autophagy inhibitors and methods of use thereof” (Deciphera Pharmaceuticals, LLC, priority 2019, dated 2022).
